Data taken from patent US20080269251A1, “Substituted Pyrazinone Derivatives as Alpha2C-Adrenoreceptor Antagonists” (priority 2005, published 2008).

The molecules below were run against T1, human adrenergic-α2A receptor (Homo sapiens, UniProt P08913) (assay: Radioligand binding experiment for hα2A-adrenergic receptor ([3H]raulwolscine)). Conditions: [3H]raulwolscine 1 nM, 60 minutes at 25° C.
T1 construct: expressed in transfected cells; host or cells: CHO cells, stably transfected; membrane preparation
T1 sequence (P08913 1-465): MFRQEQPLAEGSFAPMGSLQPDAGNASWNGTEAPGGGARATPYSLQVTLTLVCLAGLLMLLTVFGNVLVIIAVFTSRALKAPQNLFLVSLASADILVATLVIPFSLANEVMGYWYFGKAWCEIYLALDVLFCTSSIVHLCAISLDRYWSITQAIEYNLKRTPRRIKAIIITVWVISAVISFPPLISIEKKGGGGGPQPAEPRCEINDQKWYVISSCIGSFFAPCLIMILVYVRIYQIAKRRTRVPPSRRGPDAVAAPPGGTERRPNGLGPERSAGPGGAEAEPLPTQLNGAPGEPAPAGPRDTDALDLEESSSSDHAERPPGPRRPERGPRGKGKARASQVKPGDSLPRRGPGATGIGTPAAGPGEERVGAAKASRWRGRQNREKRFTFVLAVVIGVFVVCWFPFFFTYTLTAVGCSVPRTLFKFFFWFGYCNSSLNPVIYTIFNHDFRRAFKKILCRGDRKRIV
Method in brief: (§1)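 CHO membranes expressing human α2A or α2C receptors were incubated with 1 nM [^3H]raulwolscine for 60 min at 25° C in glycylglycine 25 mM, pH 8.0, then filtered. Nonspecific binding was defined with 1 μM oxymetazoline for α2A and 1 μM spiroxatrine for α2C. pIC50 came from sigmoidal competition curves.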

Row | SMILES | h-α2A pIC50
1 | Cl.O=C(CCN1CCC(F)CC1)NCc1ccc(-n2ccnc(NC3CCN(Cc4ccc5ccccc5c4)CC3)c2=O)cc1F [1-96] | 7.1
2 | Cc1ccc(CNCc2ccc(-n3ccnc(NC4CCN(Cc5ccc6ccccc6c5)CC4)c3=O)cc2)o1.Cl.Cl [1-83] | 6.7
3 | CN1CCN(Cc2ccc(-n3ccnc(NC4CCN(Cc5ccc6ccccc6c5)CC4)c3=O)cc2)CC1 [2-02] | 6.9
4 | CN(Cc1ccccc1)Cc1ccc(-n2ccnc(NC3CCN(Cc4ccc5ccccc5c4)CC3)c2=O)cc1 [1-70] | 6.5
5 | COC(=O)CCNC(=O)NCc1ccc(-n2ccnc(NC3CCN(Cc4ccc5ccccc5c4)CC3)c2=O)cc1 [1-47] | 6.3

Same assay, conditions: [3H]raulwolscine 1 nM, 60 minutes at 25° C.; read-out: h-α2A pIC50 (converted)

Row | SMILES | IC50 [nM]
6 | O=c1c(NC2CCN(Cc3ccc4ccccc4c3)CC2)nccn1-c1ccc(CN2CCCCC2)cc1 [2-11] | 200
7 | CC(=O)NCCN(C)Cc1ccc(-n2ccnc(NC3CCN(Cc4ccc5ccccc5c4)CC3)c2=O)cc1 [1-60] | 200
8 | O=C(Cn1ccnc(NC2CCN(Cc3ccc4ccccc4c3)CC2)c1=O)NCCc1ccccc1 [1-71] | 316
9 | NCCCn1ccnc(NC2CCN(Cc3ccc4ccccc4c3)CC2)c1=O [1-03] | 200
10 | O=C(NCc1ccc(-n2ccnc(NC3CCN(Cc4ccc5ccccc5c4)CC3)c2=O)cc1)c1ccno1 [1-100] | 501
11 | CN(CC(=O)N(C)C)Cc1ccc(-n2ccnc(NC3CCN(Cc4ccc5ccccc5c4)CC3)c2=O)cc1 [1-57] | 251
12 | O=c1c(NC2CCN(Cc3ccc4ccccc4c3)CC2)nccn1-c1ccc(NCCN2CCC(F)CC2)cc1 [1-89] | 200
13 | O=C(NCc1ccc(-n2ccnc(NC3CCN(Cc4ccc5ccccc5c4)CC3)c2=O)cc1)c1ccncc1 [1-101] | 501
14 | CN(C)C(=O)Cn1ccnc(NC2CCN(Cc3ccc4ccccc4c3)CC2)c1=O [1-15] | 398

More lines, now with the values ahead:

Row | IC50 [nM] | SMILES
15 | 794 | O=c1[nH]c(-c2cccc(CNCCF)c2)c(Cl)nc1NC1CCN(Cc2ccc3ccccc3c2)CC1 [7-03]
16 | 316 | O=C(CCN(c1nccn(CCC(=O)c2ccccc2)c1=O)C1CCN(Cc2ccc3ccccc3n2)CC1)c1ccccc1 [9-09]
17 | 398 | O=c1c(NC2CCN(Cc3ccc4ccccc4c3)CC2)nccn1CCCCO [3-03]
18 | 501 | O=c1c(NC2CCN(Cc3ccc4ncccc4c3)CC2)nccn1CCCOc1ccccc1 [9-12]
19 | 1000 | COC(=O)CCn1ccnc(NC2CCN(Cc3ccc4ccccc4c3)CC2)c1=O [3-04]
20 | 251 | O=C(CCN(c1nccn(CCC(=O)c2ccccc2)c1=O)C1CCN(Cc2ccc3ccccc3c2)CC1)c1ccccc1 [9-03]
21 | 631 | CCOC(=O)CCCCn1ccnc(NC2CCN(Cc3ccc4ccccc4n3)CC2)c1=O [9-14]
22 | 79.4 | CCOC(=O)CCCCn1ccnc(NC2CCN(Cc3ccc4ccccc4c3)CC2)c1=O [3-08]

Each molecule was assayed against T2, human adrenergic-α2C receptor (Homo sapiens, UniProt P18825) (assay: Radioligand binding experiment for hα2C-adrenoceptor ([3H]raulwolscine)). Conditions: [3H]raulwolscine 1 nM, 60 minutes at 25° C.
T2 construct: expressed in transfected cells; host or cells: CHO cells, stably transfected; membrane preparation
T2 sequence (P18825 1-462): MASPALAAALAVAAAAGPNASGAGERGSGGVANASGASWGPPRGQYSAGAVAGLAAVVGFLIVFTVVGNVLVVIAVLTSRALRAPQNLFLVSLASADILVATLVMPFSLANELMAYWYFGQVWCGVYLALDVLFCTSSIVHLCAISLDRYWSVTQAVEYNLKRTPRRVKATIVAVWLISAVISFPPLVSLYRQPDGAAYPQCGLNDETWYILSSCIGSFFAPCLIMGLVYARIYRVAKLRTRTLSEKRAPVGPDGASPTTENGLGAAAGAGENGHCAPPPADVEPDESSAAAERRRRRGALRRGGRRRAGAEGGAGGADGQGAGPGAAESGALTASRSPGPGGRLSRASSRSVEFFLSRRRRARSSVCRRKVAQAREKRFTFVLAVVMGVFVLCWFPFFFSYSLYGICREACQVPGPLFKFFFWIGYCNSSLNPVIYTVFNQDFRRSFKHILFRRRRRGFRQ
Method in brief: as §1

Row | SMILES | h-α2C pIC50
23 | Cl.O=C(CCN1CCC(F)CC1)NCc1ccc(-n2ccnc(NC3CCN(Cc4ccc5ccccc5c4)CC3)c2=O)cc1F [1-96] | 8.3
24 | Cc1ccc(CNCc2ccc(-n3ccnc(NC4CCN(Cc5ccc6ccccc6c5)CC4)c3=O)cc2)o1.Cl.Cl [1-83] | 7.6
25 | CN1CCN(Cc2ccc(-n3ccnc(NC4CCN(Cc5ccc6ccccc6c5)CC4)c3=O)cc2)CC1 [2-02] | 7.8
26 | CN(Cc1ccccc1)Cc1ccc(-n2ccnc(NC3CCN(Cc4ccc5ccccc5c4)CC3)c2=O)cc1 [1-70] | 7.5
27 | COC(=O)CCNC(=O)NCc1ccc(-n2ccnc(NC3CCN(Cc4ccc5ccccc5c4)CC3)c2=O)cc1 [1-47] | 7.5

Same assay, conditions: [3H]raulwolscine 1 nM, 60 minutes at 25° C.; read-out: h-α2C pIC50 (converted)

Row | SMILES | IC50 [nM]
28 | O=c1c(NC2CCN(Cc3ccc4ccccc4c3)CC2)nccn1-c1ccc(CN2CCCCC2)cc1 [2-11] | 10
29 | CC(=O)NCCN(C)Cc1ccc(-n2ccnc(NC3CCN(Cc4ccc5ccccc5c4)CC3)c2=O)cc1 [1-60] | 25.1
30 | O=C(Cn1ccnc(NC2CCN(Cc3ccc4ccccc4c3)CC2)c1=O)NCCc1ccccc1 [1-71] | 20
31 | NCCCn1ccnc(NC2CCN(Cc3ccc4ccccc4c3)CC2)c1=O [1-03] | 50.1
32 | O=C(NCc1ccc(-n2ccnc(NC3CCN(Cc4ccc5ccccc5c4)CC3)c2=O)cc1)c1ccno1 [1-100] | 3.98
33 | CN(CC(=O)N(C)C)Cc1ccc(-n2ccnc(NC3CCN(Cc4ccc5ccccc5c4)CC3)c2=O)cc1 [1-57] | 15.8
34 | O=c1c(NC2CCN(Cc3ccc4ccccc4c3)CC2)nccn1-c1ccc(NCCN2CCC(F)CC2)cc1 [1-89] | 12.6
35 | O=C(NCc1ccc(-n2ccnc(NC3CCN(Cc4ccc5ccccc5c4)CC3)c2=O)cc1)c1ccncc1 [1-101] | 25.1
36 | CN(C)C(=O)Cn1ccnc(NC2CCN(Cc3ccc4ccccc4c3)CC2)c1=O [1-15] | 126

Second part, the molecule after the results:

Row | IC50 [nM] | SMILES
37 | 200 | O=c1[nH]c(-c2cccc(CNCCF)c2)c(Cl)nc1NC1CCN(Cc2ccc3ccccc3c2)CC1 [7-03]
38 | 50.1 | O=C(CCN(c1nccn(CCC(=O)c2ccccc2)c1=O)C1CCN(Cc2ccc3ccccc3n2)CC1)c1ccccc1 [9-09]
39 | 63.1 | O=c1c(NC2CCN(Cc3ccc4ccccc4c3)CC2)nccn1CCCCO [3-03]
40 | 63.1 | O=c1c(NC2CCN(Cc3ccc4ncccc4c3)CC2)nccn1CCCOc1ccccc1 [9-12]
41 | 79.4 | COC(=O)CCn1ccnc(NC2CCN(Cc3ccc4ccccc4c3)CC2)c1=O [3-04]
42 | 39.8 | O=C(CCN(c1nccn(CCC(=O)c2ccccc2)c1=O)C1CCN(Cc2ccc3ccccc3c2)CC1)c1ccccc1 [9-03]
43 | 126 | CCOC(=O)CCCCn1ccnc(NC2CCN(Cc3ccc4ccccc4n3)CC2)c1=O [9-14]
44 | 12.6 | CCOC(=O)CCCCn1ccnc(NC2CCN(Cc3ccc4ccccc4c3)CC2)c1=O [3-08]

The molecules below were run against T3, 5HT-transporter (Homo sapiens, UniProt P31645) (assay: Binding experiment for the 5HT-transporter ([3H]paroxetine, human platelet membranes)). Conditions: [3H]paroxetine 0.5 nM, 60 min at 25° C.
T3 construct: Human platelet membranes (Oceanix Biosciences Corporation, Hanover, Md., USA) were thawed; tissue Oceanix Biosciences Corporation, Hanover, Md., USA; host or cells: human platelet membranes
Method in brief: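 Competition binding of [3H]paroxetine to human platelet membranes in Tris-HCl 50 mM with 120 mM NaCl and 5 mM KCl; bound radioligand separated by GF/B filtration and counted.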

T3 sequence (P31645 whole entry): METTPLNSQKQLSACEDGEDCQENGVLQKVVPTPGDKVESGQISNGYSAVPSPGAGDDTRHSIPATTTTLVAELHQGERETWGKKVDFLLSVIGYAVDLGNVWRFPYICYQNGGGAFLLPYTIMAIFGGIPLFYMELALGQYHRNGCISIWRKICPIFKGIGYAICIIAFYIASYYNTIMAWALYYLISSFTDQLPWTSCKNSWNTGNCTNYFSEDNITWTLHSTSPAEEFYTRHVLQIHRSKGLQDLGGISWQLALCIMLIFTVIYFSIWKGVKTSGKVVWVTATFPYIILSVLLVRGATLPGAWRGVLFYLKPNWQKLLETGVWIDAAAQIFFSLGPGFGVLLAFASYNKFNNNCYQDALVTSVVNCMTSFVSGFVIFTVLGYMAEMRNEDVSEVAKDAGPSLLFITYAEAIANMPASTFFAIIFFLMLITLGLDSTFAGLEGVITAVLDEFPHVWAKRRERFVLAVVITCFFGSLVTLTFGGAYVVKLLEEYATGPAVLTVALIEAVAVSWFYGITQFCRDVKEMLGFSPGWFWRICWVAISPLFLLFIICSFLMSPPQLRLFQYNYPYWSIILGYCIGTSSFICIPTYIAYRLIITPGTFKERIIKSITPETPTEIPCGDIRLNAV

Row | SMILES | h-5HTT pIC50
45 | Cl.O=C(CCN1CCC(F)CC1)NCc1ccc(-n2ccnc(NC3CCN(Cc4ccc5ccccc5c4)CC3)c2=O)cc1F [1-96] | 8.0
46 | Cc1ccc(CNCc2ccc(-n3ccnc(NC4CCN(Cc5ccc6ccccc6c5)CC4)c3=O)cc2)o1.Cl.Cl [1-83] | 8.3
47 | CN1CCN(Cc2ccc(-n3ccnc(NC4CCN(Cc5ccc6ccccc6c5)CC4)c3=O)cc2)CC1 [2-02] | 8.3
48 | CN(Cc1ccccc1)Cc1ccc(-n2ccnc(NC3CCN(Cc4ccc5ccccc5c4)CC3)c2=O)cc1 [1-70] | 8.0
49 | COC(=O)CCNC(=O)NCc1ccc(-n2ccnc(NC3CCN(Cc4ccc5ccccc5c4)CC3)c2=O)cc1 [1-47] | 7.6

Same assay, conditions: [3H]paroxetine 0.5 nM, 60 min at 25° C., read-out: h-5HTT pIC50 (converted)

Row | SMILES | IC50 [nM]
50 | O=c1c(NC2CCN(Cc3ccc4ccccc4c3)CC2)nccn1-c1ccc(CN2CCCCC2)cc1 [2-11] | 7.94
51 | CC(=O)NCCN(C)Cc1ccc(-n2ccnc(NC3CCN(Cc4ccc5ccccc5c4)CC3)c2=O)cc1 [1-60] | 10
52 | O=C(Cn1ccnc(NC2CCN(Cc3ccc4ccccc4c3)CC2)c1=O)NCCc1ccccc1 [1-71] | 126
53 | NCCCn1ccnc(NC2CCN(Cc3ccc4ccccc4c3)CC2)c1=O [1-03] | 200
54 | O=C(NCc1ccc(-n2ccnc(NC3CCN(Cc4ccc5ccccc5c4)CC3)c2=O)cc1)c1ccno1 [1-100] | 12.6
55 | CN(CC(=O)N(C)C)Cc1ccc(-n2ccnc(NC3CCN(Cc4ccc5ccccc5c4)CC3)c2=O)cc1 [1-57] | 50.1
56 | O=c1c(NC2CCN(Cc3ccc4ccccc4c3)CC2)nccn1-c1ccc(NCCN2CCC(F)CC2)cc1 [1-89] | 15.8
57 | O=C(NCc1ccc(-n2ccnc(NC3CCN(Cc4ccc5ccccc5c4)CC3)c2=O)cc1)c1ccncc1 [1-101] | 6.31
58 | CN(C)C(=O)Cn1ccnc(NC2CCN(Cc3ccc4ccccc4c3)CC2)c1=O [1-15] | 3160

The next lines start with the values.

Row | IC50 [nM] | SMILES
59 | 794 | O=c1[nH]c(-c2cccc(CNCCF)c2)c(Cl)nc1NC1CCN(Cc2ccc3ccccc3c2)CC1 [7-03]
60 | 126 | O=C(CCN(c1nccn(CCC(=O)c2ccccc2)c1=O)C1CCN(Cc2ccc3ccccc3n2)CC1)c1ccccc1 [9-09]
61 | 158 | O=c1c(NC2CCN(Cc3ccc4ccccc4c3)CC2)nccn1CCCCO [3-03]
62 | 794 | O=c1c(NC2CCN(Cc3ccc4ncccc4c3)CC2)nccn1CCCOc1ccccc1 [9-12]
63 | 398 | COC(=O)CCn1ccnc(NC2CCN(Cc3ccc4ccccc4c3)CC2)c1=O [3-04]
64 | 39.8 | O=C(CCN(c1nccn(CCC(=O)c2ccccc2)c1=O)C1CCN(Cc2ccc3ccccc3c2)CC1)c1ccccc1 [9-03]
65 | 3980 | CCOC(=O)CCCCn1ccnc(NC2CCN(Cc3ccc4ccccc4n3)CC2)c1=O [9-14]
66 | 10 | CCOC(=O)CCCCn1ccnc(NC2CCN(Cc3ccc4ccccc4c3)CC2)c1=O [3-08]
